Assays:
[1] = test system: LXR; details: cited from earlier work
[2] = test system: TLR3; test: Quantitative real time RT-PCR of TLR-3 in Caco2 cells; type: cell-based, human; details: CaCo2 intestinal cells, 1.9 μM, 30 minutes to 6 hours
Experimental: The Caco2 cells were cultivated in DMEM medium containing 10% serum and seeded in 25 cm^2 flasks (8 million confluence cells). The next day the cells were treated, in DMEM medium containing 2% serum, with 1.9 μM 25OHC or 27OHC (dissolved in ethanol) for 30 minutes, 1, 2, 3, 4, 5 or 6 hours. Extraction of the total RNA was performed using the TRIzol Reagent (Applied Biosystems, Monza, Italy) and the quantity and purity (A260/A280 ratio) of the extracted RNA were spectrophotometrically measured. Subsequently, 2 μg of RNA were retrotranscribed using the High-Capacity cDNA Reverse Transcription Kit (Applied Biosystems). Quantitative RT-PCR was performed with 30 ng of cDNA using the “TaqMan Gene Expression Assay kits” for TLR-3 and β-actin, TaqMan Fast Universal PCR Master Mix, and 7500 Fast Real-Time PCR System (Applied Biosystems). For each gene considered, the threshold cycle (Ct) was determined and the results were normalized using β-actin as a reference gene. The relative quantification was performed using a mathematical method previously published (29). In FIGS. 1a-1b, the results are reported as increment of the genic expression (Fold change, Fc) of the treated samples with respect to the controls.

[3] = test system: human rotavirus HRV 408; test: Infectivity assay for rotavirus, MA104 cells, strain HRV 408
Experimental: (§1) The strains of human rotavirus Wa (ATCC® VR-2018), WI61 (ATCC® VR-2551), HRV 408 (ATCC® VR-2273), HRV 248 (ATCC® VR-2274) and DS-1 (ATCC® VR-2550) were acquired from the American Tissue Culture Collection (ATCC); the viruses were activated with 5 μg/ml porcine pancreatic trypsin of type IX (Sigma, St. Louis, Mo.) for 30 minutes at 37° C. and propagated in MA104 cells using MEM containing 0.5 μg of trypsin per ml as described previously (27).
(§2) The antiviral effectiveness of the oxysterols of the invention was determined by means of infectivity inhibition assay. The assays were performed with confluent monolayers of MA104 cells seeded in plates with 96 wells, as described previously (28). […] The control samples were prepared by treating the cells with culture medium with the addition of equal volumes of ethanol. The cells were then washed with medium, and the rotavirus infection was performed at a multiplicity of infection (MOI) of 0.02. After the infection, the cells were washed with medium and incubated at 37° C. in an incubator humidified at 5% (vol/vol) CO2-95% (vol/vol) of air. After 16 hours, the infected cells were fixed with a cold acetone-methanol mixture (50:50), and the virus titres were determined by means of indirect immunocytochemistry. The inhibition of the virus infectivity was expressed as a percentage comparing the mean number of infective events in the treated and non-treated samples±the standard deviations. Where possible, the values of the oxysterol concentrations able to determine 50% or 90% of the antiviral effect (EC50 and EC90 respectively) were calculated by means of regression analysis using the dose-response curves generated by the experimental data, with the use of PRISM 5.00 (GraphPad Software, San Diego, Calif., USA).

[4] = test system: human papillomavirus; test: Target identification by siRNA sensitization (TISS), human papillomavirus, HeLa cells; details: oxysterol at its EC50
Experimental: (§3) This mechanism of action vis-à-vis the rotavirus was therefore investigated, performing a target identification assay by means of sensitization with short interfering RNA (siRNA). The Caco2 cells (for the experiments with human rotavirus) or the HeLa cells (for the experiments with human papillomavirus) were seeded in a plate with 24 wells; during seeding, the cells were transfected with siRNA specific for OSBP and VAPA (at a concentration of 20 nM). […] After one day, the medium was removed and the cells inoculated with the respective viruses in the same time, temperature and MOI conditions described in the protocols of the infectivity or neutralization assays. The number of infected cells was evaluated as described in the preceding paragraphs.

[5] = test system: rhinovirus; details: cited from earlier work
[6] = test system: rotavirus; test: Rotavirus cell entry kinetics; type: cell-based; details: MA104 cells
Experimental: To measure the entry speed of the rotavirus into the cells, confluent monolayers of MA104 cells (cultivated in plates with 96 wells) were treated with 25OHC, 27OHC or 7κC at 1.9 μM at 37° C.; after 20 hours, the cells were washed extensively with cold medium and left to cool on ice. […] The non-bound viruses were then eliminated by washing, medium was added at 37° C., and the plates were incubated at 37° C. in a humidified atmosphere. At fixed times (i.e. 0, 15, 30, 45, 60, 75 and 90 minutes after the virus-cell adhesion), the medium was extracted from the wells and the viral particles still present on the surface of the cells were eliminated by means of two rapid washing operations with EGTA 3 mM in PBS, followed by incubation in warm medium. After reaching the last time point (90 minutes from the virus-cell adhesion), the plates with 96 wells were placed in an incubator (37° C., 5% CO2), and the infection was left to proceed for a further 16 hours. The cells were then fixed and coloured as described above. The quantity of viral particles that entered the cells at each time point was compared with the quantity of virus that entered when no washing with EGTA was performed (100% entry). The ANOVA, followed by the Bonferroni test, was used to evaluate the statistical significance of the differences between the treated and non-treated samples. The significance was fixed at the level of 95%.
As a control experiment, the same treatment and infection protocol was performed on MA104 cells, cultivated in a plate with 6 wells. In this experiment, after reaching the last time point of the entry measurement (90 minutes), the cells were lysed, the proteins extracted were denatured by boiling for 5 minutes, then separated by electrophoresis on sodium dodecylsulfate gel with 12% polyacrylamide (SDS-12%PAGE) and transferred to a polyvinylidene difluoride (PVDF) membrane. The protein of the intermediate capsid VP6 was detected using the murine monoclonal antibody 2B4 (mab0036-P, CovalAb) at a dilution 1:750, followed by secondary antibody IgG-HRP (Santa Cruz Biotechnology Inc.). The actin was detected using the anti-actin murine monoclonal antibody MAB1501R (Millipore), followed by antibody IgG-HRP (Santa Cruz Biotechnology Inc.). The density of the bands was compared using the ImageJ software, and the intensity of the actin bands was used to normalize the values. The ANOVA, followed by the Bonferroni test, was used to evaluate the statistical significance of the differences between the treated and the non-treated samples. The significance was fixed at the level of 95%. The results are reported in FIG. 11 and are expressed as a percentage, comparing treated cells with cells incubated with culture medium.

[7] = test system: rotavirus; test: Assay on adhesion of the rotavirus to the cell surface; type: cell-based; details: MA104 cells, 5.6 μM for 20 hours, MOI 3
Experimental: For the assays on bonding of the rotavirus to the surface of MA104 cells, monolayers of confluent cells in plates with 24 wells were treated at 37° C. with 25- or 27-hydroxycholesterol at 1.9 μM and 5.6 μM for 20 hours. The cells were then washed and cooled on ice for 20 minutes. The infectivity of the virus was activated with 5 μg of porcine trypsin (Sigma)/ml for 30 minutes at 37° C. The activated virus, which had been cooled to 4° C., was left to adhere to the cells in ice for 1 hour at an MOI of 3. Lastly, the cells were washed with cold MEM; cold MEM was then added to the cells, which underwent two freezing-thawing cycles, in order to allow detachment of the viral particles bonded to the cell surface; the cell lysate was incubated at 37° C. for 30 minutes in the presence of […] of porcine trypsin/ml, subsequently clarified by means of centrifugation (1200 rpm, 10 minutes).
The titre of the virus population bound to the cells was determined by means of indirect immunocytochemistry performed on monolayers of MA104 cells infected with serial dilutions of the virus collected. The results are illustrated by FIG. 9; in the graph, the titre of the viral population bound to the surface of the treated cells is expressed in percentage terms with respect to the non-treated control and the error bars represent the standard deviation. […]

[8] = test system: adenovirus 5; details: for example the adenovirus 5; cited from earlier work
[9] = test system: human rotavirus; test: Target identification by siRNA sensitization (TISS), human rotavirus, Caco2 cells; details: oxysterol at its EC50
Experimental: as §3

[10] = test system: human rotavirus WI61; test: Infectivity assay for rotavirus, MA104 cells, strain WI61
Experimental: as §1, §2

## C[C@H](CCCC(C)(C)O)[C@H]1CC[C@H]2[C@@H]3CC=C4C[C@@H](O)CC[C@]4(C)[C@H]3CC[C@]12C [25OHC, 25-hydroxycholesterol]
[1]
  LXR ligand activity: optimal ligands of LXR
[2]
  TLR3 expression: marked hyperexpression of TLR3
[3]
  EC50: 120 nM
  EC90: 420 nM
[4]; OSBP siRNA 20 nM
  antiviral activity in cells with OSBP silenced: higher
[4]; VAPA siRNA 20 nM
  antiviral activity in cells with VAP-A silenced: higher
[5]
  replication of the genoma of the rhinovirus: able to inhibit replication of the genoma
  rhinovirus entry into the host cell: not entry into the host cell
[6]; 1.9 μM for 20 hours, MOI 0.02
  entry of the rotavirus into the cells (infective events): totally inhibit the ability of the rotavirus to penetrate into the host cells
[6]; 90 minutes after virus-cell adhesion
  viral antigen VP6 within the cells (Western blot): significantly (p<0.05) lower quantity than the non-treated control
[7]
  titre of the viral population bound to the cell surface: reduce in a statistically significant manner (p<0.05) the ability of the virus to adhere to the cell surface
[8]
  effectiveness on naked viruses: not effective on naked viruses
[9]; OSBP siRNA 20 nM
  antiviral activity in cells with OSBP silenced: higher
[9]; VAPA siRNA 20 nM
  antiviral activity in cells with VAP-A silenced: higher
[10]
  EC50: 90 nM
  EC90: 280 nM

Reference: patent US20170137458A1, “OXYSTEROLS FOR USE IN THE TREATMENT AND PREVENTION OF DISEASES CAUSED BY VIRUSES” (priority 2014, published 2017)
